Assay results as given in publication PMC6010013, “Synthesis, physiochemical property and antimicrobial activity of novel quaternary ammonium salts” (Journal of Enzyme Inhibition and Medicinal Chemistry, 2017).
Where a name gives a salt, the structure may show the parent alone.

test system: not given; details: not given

Structure (SMILES)	melting point [°C]
CC(C)(C)c1ccc(-c2nnc(SCCCCCC[N+](C)(CCO)CCO)o2)cc1 (as salt: bromide) [Compound 7a]	78 to 80
C[N+](CCO)(CCO)CCCCCCSc1nc2ccccc2s1 (as salt: bromide) [Compound 13a]	142 to 143
C[N+](CCO)(CCO)CCCCCCSc1nnc(-c2ccc(C(F)(F)F)cc2)o1 (as salt: bromide) [Compound 6a]	93 to 94
C[N+](CCO)(CCO)CCCCCCCCCCCCSc1nnc(-c2ccc(F)cc2)o1 (as salt: bromide) [Compound 5d]	98 to 100
C[N+](CCO)(CCO)CCCCCCCCCCCCSc1nc2ccccc2o1 (as salt: bromide) [Compound 10d]	125 to 127
C[N+](CCO)(CCO)CCCCCCCCCCCCSc1nc2ccccc2s1 (as salt: bromide) [Compound 13d]	106 to 107
C[N+](CCO)(CCO)CCCCCCCCSc1nnc(-c2ccc(F)cc2)o1 (as salt: bromide) [Compound 5b]	81 to 82
C[N+](CCO)(CCO)CCCCCCCCCCSc1nnc(-c2ccc(F)cc2)o1 (as salt: bromide) [Compound 5c]	102 to 103
C[N+](CCO)(CCO)CCCCCCSc1nnc(-c2ccc(F)cc2)o1 (as salt: bromide) [Compound 5a]	74 to 76
C[N+](CCO)(CCO)CCCCCCCCSc1nc2ccccc2o1 (as salt: bromide) [Compound 10b]	125 to 127
C[N+](CCO)(CCO)CCCCCCCCSc1nnc(-c2ccc(C(F)(F)F)cc2)o1 (as salt: bromide) [Compound 6b]	78 to 80
CC(C)(C)c1ccc(-c2nnc(SCCCCCCCC[N+](C)(CCO)CCO)o2)cc1 (as salt: bromide) [Compound 7b]	71 to 72

Next, values leading:

melting point [°C]	Structure (SMILES)
74 to 75	Cc1nnc(SCCCCCCCC[N+](C)(CCO)CCO)s1 (as salt: bromide) [Compound 16b]
77 to 78	Cc1nnc(SCCCCCCCCCC[N+](C)(CCO)CCO)s1 (as salt: bromide) [Compound 16c]
78 to 80	CC(C)(C)c1ccc(-c2nnc(SCCCCCCCCCC[N+](C)(CCO)CCO)o2)cc1 (as salt: bromide) [Compound 7c]
128 to 129	C[N+](CCO)(CCO)CCCCCCCCCCSc1nc2ccccc2o1 (as salt: bromide) [Compound 10c]
111 to 112	C[N+](CCO)(CCO)CCCCCCCCCCSc1nc2ccccc2s1 (as salt: bromide) [Compound 13c]
56 to 57	Cc1nnc(SCCCCCC[N+](C)(CCO)CCO)s1 (as salt: bromide) [Compound 16a]
87 to 89	C[N+](CCO)(CCO)CCCCCCCCSc1nc2ccccc2s1 (as salt: bromide) [Compound 13b]
95 to 96	Cc1nnc(SCCCCCCCCCCCC[N+](C)(CCO)CCO)s1 (as salt: bromide) [Compound 16d]

test system: normal cell lines; design: method as in PMID 25215430; details: cell line not given; cited from earlier work

Structure (SMILES)	Cytotoxicity IC50
CCCCCCCCCCCC[N+](C)(CCO)CCO [Compound C12QAS, N-methyl-N-dodecyl-N,N-bis(2-hydroxyethyl) ammonium bromides]	ca. 4.00 μg/mL
